Laboratory results from US20090149453A1, “METHODS AND COMPOSITIONS FOR TREATING BACTERIAL INFECTIONS AND DISEASES ASSOCIATED THEREWITH” (ACTIVBIOTICS PHARMA LLC, priority 2002, published 2009).
In brackets after ≈: the same amount, converted by molar mass. Entries after “also recorded” stand apart in the source; their conditions may differ. Read-outs that look alike come from different tables or passages of the source.

Tests used:
Type in all cases: cell-based, Staphylococcus aureus
[1] = system: S. aureus 29213; assay: MIC testing according to NCCLS standard; conditions: S. aureus 29213, NCCLS standard MIC testing
[2] = system: S. aureus 29213, stationary-phase; assay: Rif-resistant cfu/ml in drug-treated stationary-phase cultures; conditions: Example 3, stationary-phase, Van or Rfz alone; Van 15 μg/ml plus Rfz 0.1 μg/ml
Procedure: The emergence of Rif/Rfz-resistant cells in cultures in these experiments was monitored as previously described; the results are shown in FIG. 6.
(§1) For stationary phase studies, cultures were grown to an optical density of 2.2 to 2.4 at 600 nm, which represents approximately 5×10^9 cfu/ml; there would exist approximately 50 resistant mutants per nil in such a stationary phase culture. Drugs were added to the cultures to start the experiment, and then aliquots were removed at various time points, diluted in MHB if appropriate, and applied to 100 mm MHA and MHA plates containing Rif at 1 μg/ml. These plates were incubated at 35° C. for 18-24 hours, and then colonies manually counted to determine the number of cfu per nil of culture for the specific time-point/treatment. […] The Rif-containing plates were used to determine the number of Rfz-resistant bacteria present in the cultures for the specific time-point/treatment. Untreated control cultures were included in each experiment.

[3] = system: S. aureus strain ATCC 29213, log-phase; assay: Viability (cfu/ml) of log-phase cultures exposed to drugs, plated on non-selective MHA; conditions: for decrease in cfu/ml: drug alone: Rif 0.1 μg/ml (initial drop), Van 10 μg/ml
[4] = system: S. aureus strain ATCC 29213, log-phase
Procedure: In order to characterize the population of the cultures shown in FIG. 1, aliquots at the various time points/treatments were tested for the presence of Rif-resistant mutants.
Cultures were also examined as described above for the number of cfu/ml present that were resistant to Rif (FIG. 4).
(§2) For log-phase studies, cells were grown to an optical density of 0.5 at 600 nm, which represents a culture density of 5×10^8 colony forming units (cfu)/ml for S. aureus and deviates from densities typically used in time-kill type assays (1×10^7 cfu/ml). We chose to start at a higher density because this density is more likely to reflect in vivo bioburden than lower starting densities. In addition, this starting density is critical for monitoring the emergence of ansamycin-resistant mutants because it insures that there is a starting resident population of such resistant mutants at the start of the experiment. The 10^−8 frequency of mutants to Rfz leads to a theoretical number of five mutants per ml of culture at this cell density.
as §1

[5] = system: S. aureus 29213, stationary-phase; assay: Viability (cfu/ml) of stationary-phase cultures exposed to drugs; conditions: for killing effect against stationary phase cultures (summary, words): stationary phase (non-multiplying), alone or in combination; for log killing of stationary-phase cultures: summary, over 48 hours, single drugs or combination
Procedure: Cultures of S. aureus 29213 were grown to stationary-phase (an OD of 2.2 to 2.4 at 600 nm), then treated with Van and Rfz, either alone or in combination (FIG. 5; concentrations listed are in μg/ml). Rfz was used at 0.1 μg/ml, while Van was used at 15 μg/ml and 30 μg/ml, the latter concentration based on the fact that the starting culture was at a much higher density than was the log-phase cultures used in the experiments described above. It was assumed that more Van might be required to give a prolonged killing effect. In addition, one culture was treated with 15 μg/ml Van at the start of the experiment and then again 24 hours later. At 0, 24 and 48 hours, the number of viable cells was determined by plating on non-selective medium as described above.
The bacterial strain used in this study was “wild-type” S. aureus strain ATCC 29213. The strain was grown in Mueller Hinton II Broth (MHB; cationadjusted; VWR) and on Mueller Hinton Agar (MHA; VWR) plates that were made according to the manufacturer's instructions. Van (Calbiochem) was resuspended in sterile water (Fisher) at 10 mg/ml, while Rif (Calbiochem) and Rfz (ActivBiotics) were resuspended in 100% DMSO (J. T. Baker) at 1 mg/ml. All drugs were stored at −80° C. in single-use aliquots.
S. aureus strain ATCC 29213 was grown on an MHA plate at 35° C. for 18 hours. Colonies (3-5) were used to inoculate 50-100 ml of cation-adjusted MHB in a 500 ml Ehrlenmeyer flask and grown at 37° C. in a water bath shaker at 240 rpm.
as §1

[6] = system: S. aureus; assay: Frequency of resistant mutants; conditions: resistance to Rfz
Procedure: as §2

Compound | MIC [1] | emergence of Rif/Rfz-resistant colonies [2] | drop in cfu/ml (logs killed) ([3]; Example 1, log-phase, 0.1 μg/ml alone, in 4 hours) | reduction of cfu/ml of the culture (cidality) ([3]; Example 2, log-phase, Rfz 0.1 μg/ml (6.5× MIC) alone, within 6 hours) | cfu/ml level after regrowth ([3]; Example 2, log-phase, Rfz alone 0.1 or 0.025 μg/ml, over 48 hours) | reduction of cfu/ml at the lower concentration compared to the higher ([3]; log-phase, Rfz 0.025 μg/ml (1.6× MIC) vs 0.1 μg/ml (6.5× MIC)) | Rif-resistant cfu ([4]; Example 1, log-phase, 0.1 μg/ml alone, in 24 hours) | appearance of Rif-resistant cfu in log-phase cultures (summary, words) ([4]; log-phase, Rfz single agent or co-treatment with Van) | decrease of cfu ([5]; Example 3, stationary-phase, Rfz 0.1 μg/ml alone) | killing effect against stationary phase cultures (summary, words) [5] | log killing of stationary-phase cultures [5] | frequency of mutants [6] | MIC ([1]; Staphylococcus aureus, read-out: MIC) | decrease in cfu/ml ([3]; Example 1, log-phase) | Rif-resistant cfu [4] | significant killing ([3]; log-phase dense cultures, Van alone, after 48 hours of treatment) | killing effect at increased concentration ([3]; log-phase, vancomycin alone 15 μg/ml) | emergence of Rif-resistant cells ([4]; Example 1, log-phase, Van 10 μg/ml alone or with Rif/Rfz 0.1 μg/ml) | viability of the cultures during treatment ([5]; Example 3, stationary-phase, Van alone 15 or 30 μg/ml)
3′-hydroxy-5′-(4-isobutyl-1-piperazinyl) benzoxazinorifamycin [Rfz] | 0.015 µg/mL | Resistant colonies did not appear | approximately 3.5 logs | approximately 3 logs | approximately 10×10^8 cfu/ml | just as effective; also recorded: as effective as 6.5× the MIC levels | 8 logs | dramatic increase in Rif-resistant cfu/ml within 10 hours | about 1 log | little or no killing effect | approximately 1 log | 10^−8 | – | – | – | – | – | – | –
CO[C@H]1/C=C/O[C@@]2(C)Oc3c(C)c(O)c4c(O)c(c(/C=N/N5CCN(C)CC5)c(O)c4c3C2=O)NC(=O)/C(C)=C\C=C\[C@H](C)[C@H](O)[C@@H](C)[C@@H](O)[C@@H](C)[C@H](OC(C)=O)[C@@H]1C [Rif, rifampicin, reference compound] | – | – | – | – | – | – | – | – | – | – | – | – | 0.015 µg/mL (≈ 0.0182 µM) | ~2.5 log | 8 logs | – | – | – | –
CN[C@H](CC(C)C)C(=O)N[C@H]1C(=O)N[C@@H](CC(N)=O)C(=O)N[C@H]2C(=O)N[C@H]3C(=O)N[C@H](C(=O)N[C@H](C(=O)O)c4cc(O)cc(O)c4-c4cc3ccc4O)[C@H](O)c3ccc(c(Cl)c3)Oc3cc2cc(c3O[C@@H]2O[C@H](CO)[C@@H](O)[C@H](O)[C@H]2O[C@H]2C[C@](C)(N)[C@H](O)[C@H](C)O2)Oc2ccc(cc2Cl)[C@H]1O [Van, vancomycin, reference compound] | – | Resistant colonies did not appear | – | – | – | – | – | – | – | little or no killing effect | approximately 1 log | – | – | 0.5 log | – | 3 logs | sufficient for sustained killing | little or no increase in the number of Rif-resistant cells | did not decrease significantly
